Assay [1] relates to Acinetobacter baylyi ΔlpxM. The assay is described as follows: MIC by broth microdilution, A. baylyi ΔlpxM. The class given is cell-based. On the procedure: (§1) Culture, genetic manipulation and MIC measurements of A. baylyi ADP1 were conducted according to previously reported procedures[46],[51]. Point mutants were constructed in a two-step procedure following ref. [52] with the introduction and excision of the integration cassette at codon 66 of pepA, wherein the excising fragment of otherwise wild-type chromosomal DNA sequence from codon 406 of pepA to codon 193 of lptG bore the desired mutation and the resulting clones were screened by amplicon sequencing from codon 81 of HolC to codon 501 of GpmI, whereas lpxM deletion was achieved following the same procedure except that the integration cassette insertion and excision removed codons 79–279 of lpxM to avoid interference with neighbouring and overlapping genes that a larger deletion may risk and replaced codon 78 with an ochre stop codon to prevent a readthrough resulting in an aberrant fusion, with the excising fragment sequence spanning from codon 211 of sppA to codon 497 of ComA and verified by amplicon sequencing from codon 94 of MhpC to codon 327 of ComA as well as by absence of a PCR product corresponding to a region spanning codons 79 to 279 of lpxM to check for duplications. A deletion of the lon protease was made in the same manner to produce the stain used for expression and purification of LptB2FG to mimic the BL21 strain of E. coli used in the rest of purifications, for which the region encompassing 72 base pairs (bp) upstream of the lon start codon and 1 bp downstream of the lon stop codon was excised after being replaced with the same integration cassette, yielding a markerless deletion, with the excising fragment sequence spanning from codon 491 of ArnT to codon 40 of 45_DOPA_Dioxygenase and verified by amplicon sequencing spanning from codon 322 of ArnT to codon 221 of 45_DOPA_Dioxygenase as well as by absence of a PCR product corresponding to a region spanning from codons 328 to 768 of lon to check for duplications. Following amplicon confirmation, three validated isolates of each constructed mutant were tested for susceptibility to a panel of antibiotics with […] known mechanisms of action as a further validation step to ensure congruence of phenotypes across replicates, which was confirmed in all cases and one of the validated replicates was later used for MIC measurements reported here.
(§2) MIC determinations were performed by broth microdilution in line with CLSI guidelines (CLSI M07-A11 2018). Bacterial inocula were prepared by diluting overnight liquid cultures in LB. Antibacterial panels containing antibacterial solutions were inoculated with an appropriate volume of inoculum to give a final inoculum of about 5 × 10^5 c.f.u. ml^−1 and desired test concentrations of antibacterial agents in standard 96-well plates with 0.1 ml of culture per well. The test plates were incubated for 20–24 h and optical density (OD600) was recorded using a plate reader. MIC values corresponded to the lowest compound concentration inhibiting bacterial growth beyond which OD ceased to decrease.
For orientation: In broth dilution the organism is exposed to a series of concentrations in liquid medium.

In assay [2] the test system is Acinetobacter baylyi ΔLpxC. The class given is cell-based. The settings on record: A. baylyi ΔLpxC (lacking LPS). On the procedure: as §1, §2
Another assay deals with Acinetobacter LptB2FGC. The assay is described as follows: LPS release assay from proteoliposomes to LptA, wild-type LptB2FGC. The class given is biochemical, Acinetobacter baylyi. The settings on record: for Inhibition of LPS release (transport) to LptA: wild-type LptB2FGC, E. coli LPS, 60 min. On the procedure: (§3) Proteoliposomes were prepared as described previously. Aqueous E. coli polar lipid extract (Avanti Polar Lipids) (30 mg ml^−1) and aqueous LPS from E. coli EH100 (Ra mutant; Sigma) (2 mg ml^−1) were sonicated briefly for homogenization. For experiments testing the effect of LPS structure, we used LPS isolated from either GKM374 (BL21DE3 eptA::catR arnA::kanR eptC::gentR) or TXM418 (BL21DE3 eptA::catR arnA::FRT eptB::gentR lpxM::kanR) as described previously. A mixture of 20 mM Tris-HCl (pH 8.0), 150 mM NaCl, 7.5 mg ml^−1 of E. coli polar lipids, 0.5 mg ml^−1 of LPS and 0.25% DDM was prepared and kept on ice for 10 min. Purified LptB2FGC or LptB2FG was added to a final concentration of 0.86 μM and the mixture was left on ice for 20 min. The mixture was diluted 100-fold with cold 20 mM Tris-HCl (pH 8.0) and 150 mM NaCl and kept on ice for 20 min. The proteoliposomes were pelleted (300,000g, 2 h, 4 °C), resuspended in 20 mM Tris-HCl (pH 8.0) and 150 mM NaCl, diluted 100× and centrifuged (300,000g, 2 h, 4 °C). The pellets were resuspended in a mixture of 20 mM Tris-HCl (pH 8.0), 150 mM NaCl and 10% glycerol (250 μl per 100 μl of the original predilution solution), homogenized by sonication, flash frozen and stored at −80 °C until use.
The amounts of release of LPS from proteoliposomes to LptA were measured as previously described. Assays used 60% proteoliposomes (by volume) in a solution containing 50 mM Tris-HCl (pH 8.0), 500 mM NaCl, 10% glycerol and 2 µM LptA^I36pBPA. Reaction mixtures were incubated with drug for 10 min at room temperature, as applicable. Reactions were then initiated by the addition of ATP and MgCl2 (final concentrations of 5 mM and 2 mM, respectively) and proceeded at 30 °C. Aliquots (25 µl) were removed from the reaction mixtures and irradiated with ultraviolet (UV) light (365 nm) on ice for 10 min using a B-100AP lamp (Fisher Scientific). Following UV irradiation, 25 µl of 2× SDS–PAGE sample loading buffer was added, samples were boiled for 10 min and proteins were separated using Tris-HCl 4–20% polyacrylamide gradient gels with Tris-glycine running buffer. Immunoblotting was conducted as described above.

A further assay relates to LptB2F^I317NGC. Kind of assay: LPS release assay, LptB2F(I317N)GC. The class given is biochemical, Acinetobacter baylyi. The settings on record: LptF I317N complex, E. coli LPS. The protocol:
as §3
The amounts of release of LPS from proteoliposomes to LptA were measured as previously described. […]

Assay [3] has as its system Acinetobacter baylyi LptF(E249K). It counts as cell-based. The settings on record: A. baylyi LptF(E249K). On the procedure:
as §1, §2

The test system of assay [4] is Acinetobacter baylyi LptF(E58V). It counts as cell-based. The settings on record: A. baylyi LptF(E58V). The protocol: as §1, §2
Assay [5] concerns Acinetobacter baylyi LptF(I317N). The class given is cell-based. As to conditions: A. baylyi LptF(I317N). The protocol:
as §1, §2

Assay [6] has as its system Acinetobacter baylyi LptF(R320T). The class given is cell-based. The settings on record: A. baylyi LptF(R320T). On the procedure: as §1, §2
Assay [7] relates to Acinetobacter baylyi LptF(V314L 315del). It counts as cell-based. The settings on record: A. baylyi LptF(V314L 315del). On the procedure: as §1, §2
The subject of assay [8] is Acinetobacter baylyi LptF(W271R). The class given is cell-based. The settings on record: A. baylyi LptF(W271R). On the procedure: as §1, §2
Assay [9] concerns Acinetobacter baylyi LptG(L36Q). It counts as cell-based. As to conditions: A. baylyi LptG(L36Q). The protocol: as §1, §2

Values joined by “and” are separate entries in the source; they are usually repeats but may differ in a detail not shown here. Identical values can stand only once.

As for `CN1C(=O)[C@H](CCCCN)NC(=O)[C@H](CCCN)NCc2cccnc2Sc2c(Cl)ccc(-c3ccc(N)nc3)c2CNC(=O)[C@@H]1Cc1c[nH]c2ccccc12` [Compound 1], in assay [1] (A. baylyi lpxM deletion strain vs wild type), the “Fold less susceptible than wild type” value is listed as 30 fold. For the same compound, the MIC (commonly the lowest concentration that inhibits growth of the organism) in assay [1] (A. baylyi ΔlpxM) is 0.3 µM and 0.2 µg/mL; in assay [2], > 50 µM and > 40 µg/mL. The “Fold higher compound concentration at which transport of ΔLpxM LPS was possible vs that inhibiting wild-type LPS transport” value with Acinetobacter LptB2FGC (LPS from E. coli LpxM deletion strain vs matching wild-type LPS) is on record as 20 fold. Further, in the assay with Acinetobacter LptB2FGC, the “Inhibition of LPS release (transport) to LptA” value is on record as “blocked LPS release”. Moreover, in the assay with LptB2F^I317NGC, the “Inhibition of LPS release to LptA” value is listed as “did not block LPS release”.
For `CN1C(=O)[C@H](CCCCN)NC(=O)[C@H](CCCN)NCc2cccnc2Sc2c(Cl)ccc(Cl)c2CNC(=O)[C@@H]1Cc1c[nH]c2ccccc12` [Compound 3], the MIC was greater than 50 µM in assay [3]; 14 µM and 10 µg/mL in assay [4]; greater than 50 µM in assay [5]; 0.24 µM and 0.18 µg/mL in assay [6]; 0.24 µM and 0.18 µg/mL in assay [7]; 0.07 µg/mL and 0.1 µM in assay [8]. For the same compound, the MIC in [9] was 0.44 µM and 0.33 µg/mL. The “Fold less effective than 1 and 2 in LPS release from LptB2FGC to LptA” value in the assay on Acinetobacter LptB2FGC (LptB2FGC with LptC TM helix) is 100 fold. Besides, the “Inhibition of LPS release (transport) to LptA” value in the assay with Acinetobacter LptB2FGC is “not inhibited”.
Consider `CN1C(=O)[C@H](CCCCN)NC(=O)[C@H](CCCN)NCc2cccnc2Sc2cccc(-c3ccc(C(=O)O)cc3)c2CNC(=O)[C@@H]1Cc1c[nH]c2ccccc12` [Compound 2, Zosurabalpin], for which the MIC is 17 µM and 13 µg/mL in [3]; 3.4 µM and 2.7 µg/mL in assay [4]; 9 µM and 7 µg/mL in assay [5]; 1.4 µM and 1.1 µg/mL in [6]; 3 µM and 2 µg/mL in assay [7]; 0.08 µg/mL and 0.1 µM in [8]. Further, the minimum inhibitory concentration (MIC) in assay [9] was 0.44 µM and 0.35 µg/mL.

The values above are taken from paper PMC10794137, “A new antibiotic traps lipopolysaccharide in its intermembrane transporter” (Nature, 2024).
